Laboratory results published in patent publication US7745393B2, “Minimalist bZIP proteins and uses thereof” (priority 2005, dated 2010).
“Also recorded” adds a separate entry of the source.

Columns and labels:
[1] = test system: E-box target, 5′-CACGTG; assay: yeast one-hybrid his3 reporter assay (colony growth on SD/-His/-Leu with 3-AT); format: cell-based, Saccharomyces cerevisiae; parameters: key to his3: +: positive; −: negative; details: for his3 assay binding/colony growth: 30° C.; for his3: positive/negative colony growth in yeast cells on plates; for binding to E-box / colony growth in yeast one-hybrid assay: 3-AT concentration not stated
Source text: A reporter strain was constructed such that the E-box target, 5′-CACGTG, resides upstream of the HIS3 reporter gene. The bHLH/bZIP hybrid was fused to the GAL4 transcriptional activation domain so that if a hybrid binds the E-box, the HIS3 protein will be expressed, thus allowing yeast to survive under conditions of histidine auxotrophy. Four tandem copies of the E-box (as shown in Table 9) were cloned into the pHISi-1 integrating reporter vector (Matchmaker One-Hybrid System, Clontech). After insertion of the E-box insert, the pHISi-1 vector was linearized and incorporated into the yeast genome by homologous recombination to generate Saccharomyces cerevisiae YM4271[pHISi-1/E-box]. To assess background due to the reporter, 3-aminotriazole (3-AT) was used as a competitive inhibitor of the HIS3 protein. Because it is possible that the reporter may be activated by endogenous factors, YM4271[pHISi-1/E-box] was subjected to titration with varying amounts of 3-AT to measure the concentration of 3-AT sufficient for suppression of background growth.
Transformation of the yeast cells was performed by electroporation. Following electroporation, cells were plated on minimal selective medium lacking leucine and histidine with the appropriate amount of 3-AT to suppress background.
(§1) A modified yeast one-hybrid system (Y1H) (Wang MM and Reed RR. 1993, Nature, 364, 121) was used to examine the E-box binding activity of the hybrids in vivo. Two S. cerevisiae reporter strains were constructed: four tandem copies of the E-box were cloned upstream of either the his3 or LacZ reporters. In the his3 assay, the His3 protein is expressed upon binding of our hybrids at E-box, allowing yeast to survive under histidine auxotrophy (FIG. 6). Surviving colonies are visualized on plates with media lacking histidine and in the presence of 3-aminotriazole (3-AT), a competitive inhibitor of His3 that reduces background growth. Yeast was plated on 10-60 mM 3-AT as a qualitative test of binding strength to E-box. Hybrids were also tested by two assays based on the LacZ reporter, which encodes β-galactosidase. (Serebriiskii, I. G. and Golemis, E. A. 2000 Anal. Biochem. 285, 1. The qualitative colony-lift filter assay uses X-gal as substrate for calorimetric visualization of protein-DNA binding (FIG. 7). Positives display vivid blue color. The ortho-nitrophenyl-β-galactoside (ONPG) liquid assay is quantitative (FIG. 8). However, this assay is not sensitive enough to quantify weak interactions accurately, (Mökli, N. and Auerbach, D. 2004 BioTechniques 36, 872) so the far more sensitive colony-lift assay is also typically performed.

[2] = test system: E-box; assay: LacZ colony-lift filter assay (X-gal); format: cell-based, S. cerevisiae; parameters: key to Colony-lift: +: blue; −: white; details: for Colony-lift: LacZ-based X-gal colony-lift filter assay, blue/white screen; for colony-lift filter assay binding (color): X-gal substrate
Source text: as §1

[3] = test system: E-box; assay: LacZ ONPG liquid assay (β-galactosidase); format: cell-based, S. cerevisiae; details: for β-galactosidase activity: ONPG assay, FIG. 8, averages of nine to twelve measurements
Source text: The measurement of binding of the minimalist bZIP proteins to the target DNA sequence is a LacZ-based quantitative assay using ortho-nitrophenyl-beta-galactoside as calorimetric substrate (ONPG). Minimalist bZIP proteins with ONPG values exceeding 10 beta-galactosidase units are considered to be good binders to the target DNA sequence. Minimalist bZIP proteins with ONPG values below 10 beta-galactosidase units are ideal for selection and evolution,
as §1

[4] = biological target: E-box; details: high-salt conditions, in vitro; cited from earlier work

Molecule	his3 [1]	Colony-lift [2]	β-galactosidase activity [3]	ONPG ([3]; Table 11)	his3 assay binding/colony growth ([1]; 10 mM 3-AT)	binding to E-box / colony growth in yeast one-hybrid assay [1]	colony-lift filter assay binding (color) [2]	other results
native Max bHLHZ: native Max bHLHZ (residues 22-113, 92 amino acids), positive control	+	+	26.4±7.7	26.4 ± 7.7 β-galactosidase units				his3 assay binding/colony growth ([1]; 20 mM 3-AT): strong binding/colony growth; his3 assay binding/colony growth ([1]; 60 mM 3-AT, listed as Max bHLHZ): good colony growth; his3 assay binding/colony growth ([1]; 60 mM 3-AT, listed as Native Max bHLHZ): strong binding/colony growth; colony-lift filter assay binding (color) ([2]; listed as Max bHLHZ): intense blue color; also recorded: positive binding (dark blue); colony-lift filter assay binding (color) ([2]; listed as Native Max bHLHZ): positive binding (dark blue); ONPG ([3]; Table 12): 26.41 ± 7.73
Arnt bHLH: Arnt bHLH alone (56 amino acids), literature, Huffman et al. 2001								Kd [4]: 56.2 ± 11.7 nM
Max-C/EBP: Max basic region, RIR linker, C/EBP leucine zipper; SEQ ID NO. 52, same sequence as SEQ ID No. 1 (ADKRAHHNALERKRRDHIKDSFHSRIRLEQKVLELTSDNDRLRKRVEQLSRELDTL; fusion protein)	−	−		2.2 ± 0.2 β-galactosidase units	no binding	undetectable	no binding (clear)	his3 assay binding/colony growth ([1]; 10 mM 3-AT, listed as Max/C-EBP): Binding undetectable
Arnt1-C/EBP: Arnt basic region, RIR linker, C/EBP leucine zipper; SEQ ID No. 7 (protein, fusion protein) KFLRCDDDQMSNDKERFARENHSEIERRRRNKMTAYITERIRLEQKVLELTSDNDRLRKRVEQLSRELDTL					able to bind to the E-box target DNA sequence			
Arnt-C/EBP: Arnt basic region and a portion of Helix 1 directly fused to the C/EBP zipper (protein, Arnt-C/EBP, Arnt basic region and a portion of Helix 1 directly fused to the C/EBP zipper) DQMSNDKERFARENHSEIERRRRNKMTAYITELSRIRLEQKVLELTSDNDRLRKRVEQLSRELDTL			2.9±0.3			no colony growth	extremely pale color; also recorded: no binding (clear)	
